Experimental data reported in patent EP2650284A1, “Heterocyclic derivatives as metabotropic glutamate receptor modulators” (Merz Pharma GmbH & Co. KGaA, priority 2012, dated 2013).
Like-named read-outs stand apart in the source and are kept apart here.

What was measured:
[1] = target: T1, human metabotropic glutamate receptor mGluR5 (Homo sapiens, UniProt P41594); experiment: Cytosolic calcium studies with stably transfected cells (h5CHO), functional assay of mGluR5 receptors; type: cell-based; conditions: for EC50: positive modulators, h5CHO cells preincubated with modulator, stimulated by an EC20 concentration of L-glutamate, read-out: hEC50
T1 construct: expressed in transfected cells; host or cells: CHO-K1 (h5CHO), IPTG-inducible
T1 sequence (P41594 21-1212): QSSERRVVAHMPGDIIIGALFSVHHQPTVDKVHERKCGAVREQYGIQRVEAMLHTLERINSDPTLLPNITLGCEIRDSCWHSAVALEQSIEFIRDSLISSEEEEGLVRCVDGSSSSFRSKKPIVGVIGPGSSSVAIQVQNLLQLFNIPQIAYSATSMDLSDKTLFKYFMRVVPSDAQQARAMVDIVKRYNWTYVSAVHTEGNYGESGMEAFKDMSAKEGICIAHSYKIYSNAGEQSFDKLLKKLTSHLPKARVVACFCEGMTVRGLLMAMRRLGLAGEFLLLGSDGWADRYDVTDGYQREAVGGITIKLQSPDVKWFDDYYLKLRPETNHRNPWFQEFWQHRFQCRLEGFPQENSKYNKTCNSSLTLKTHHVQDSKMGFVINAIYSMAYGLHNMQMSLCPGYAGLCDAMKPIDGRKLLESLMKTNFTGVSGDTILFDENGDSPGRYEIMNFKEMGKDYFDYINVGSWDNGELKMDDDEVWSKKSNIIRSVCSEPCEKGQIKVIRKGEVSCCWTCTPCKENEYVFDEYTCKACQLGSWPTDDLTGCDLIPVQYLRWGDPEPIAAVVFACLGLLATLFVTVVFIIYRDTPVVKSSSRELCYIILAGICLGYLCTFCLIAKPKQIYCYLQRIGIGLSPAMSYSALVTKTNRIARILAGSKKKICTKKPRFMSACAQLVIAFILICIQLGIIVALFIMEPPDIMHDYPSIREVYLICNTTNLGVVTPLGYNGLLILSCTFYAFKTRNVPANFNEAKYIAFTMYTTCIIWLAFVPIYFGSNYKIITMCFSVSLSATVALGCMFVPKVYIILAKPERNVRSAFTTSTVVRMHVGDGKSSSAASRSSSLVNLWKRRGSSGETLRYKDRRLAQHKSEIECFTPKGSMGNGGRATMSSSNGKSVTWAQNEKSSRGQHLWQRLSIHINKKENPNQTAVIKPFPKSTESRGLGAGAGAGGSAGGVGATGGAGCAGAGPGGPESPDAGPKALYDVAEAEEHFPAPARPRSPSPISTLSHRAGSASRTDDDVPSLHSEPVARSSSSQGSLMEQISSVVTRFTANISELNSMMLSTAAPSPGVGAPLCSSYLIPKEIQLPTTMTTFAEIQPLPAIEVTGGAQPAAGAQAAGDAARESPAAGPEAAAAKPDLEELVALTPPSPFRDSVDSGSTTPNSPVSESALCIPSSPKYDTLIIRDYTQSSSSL
Method in brief: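 IPTG-induced h5CHO (CHO-K1 expressing human mGluR5) loaded with calcium dye; compounds (0.5% DMSO) added 5 min before agonist. NAM IC50 against L-quisqualate at ~EC80; PAM EC50 with EC20 L-glutamate. FLIPR fluorescence, max-minus-min, % of maximal response, logistic fit.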

mGluR5 receptors = target: T2, mGluR5 receptors (Rattus norvegicus, UniProt P31424); experiment: Cytosolic calcium studies with astrocytes (FLIPR), functional assay of mGluR5 receptors; type: cell-based
T2 construct: Primary astrocyte cultures are prepared from cortices of newborn rats; endogenous in cells; host or cells: primary cortical astrocytes from Sprague-Dawley rat pups (2-4 d old)
T2 sequence (P31424 21-1203): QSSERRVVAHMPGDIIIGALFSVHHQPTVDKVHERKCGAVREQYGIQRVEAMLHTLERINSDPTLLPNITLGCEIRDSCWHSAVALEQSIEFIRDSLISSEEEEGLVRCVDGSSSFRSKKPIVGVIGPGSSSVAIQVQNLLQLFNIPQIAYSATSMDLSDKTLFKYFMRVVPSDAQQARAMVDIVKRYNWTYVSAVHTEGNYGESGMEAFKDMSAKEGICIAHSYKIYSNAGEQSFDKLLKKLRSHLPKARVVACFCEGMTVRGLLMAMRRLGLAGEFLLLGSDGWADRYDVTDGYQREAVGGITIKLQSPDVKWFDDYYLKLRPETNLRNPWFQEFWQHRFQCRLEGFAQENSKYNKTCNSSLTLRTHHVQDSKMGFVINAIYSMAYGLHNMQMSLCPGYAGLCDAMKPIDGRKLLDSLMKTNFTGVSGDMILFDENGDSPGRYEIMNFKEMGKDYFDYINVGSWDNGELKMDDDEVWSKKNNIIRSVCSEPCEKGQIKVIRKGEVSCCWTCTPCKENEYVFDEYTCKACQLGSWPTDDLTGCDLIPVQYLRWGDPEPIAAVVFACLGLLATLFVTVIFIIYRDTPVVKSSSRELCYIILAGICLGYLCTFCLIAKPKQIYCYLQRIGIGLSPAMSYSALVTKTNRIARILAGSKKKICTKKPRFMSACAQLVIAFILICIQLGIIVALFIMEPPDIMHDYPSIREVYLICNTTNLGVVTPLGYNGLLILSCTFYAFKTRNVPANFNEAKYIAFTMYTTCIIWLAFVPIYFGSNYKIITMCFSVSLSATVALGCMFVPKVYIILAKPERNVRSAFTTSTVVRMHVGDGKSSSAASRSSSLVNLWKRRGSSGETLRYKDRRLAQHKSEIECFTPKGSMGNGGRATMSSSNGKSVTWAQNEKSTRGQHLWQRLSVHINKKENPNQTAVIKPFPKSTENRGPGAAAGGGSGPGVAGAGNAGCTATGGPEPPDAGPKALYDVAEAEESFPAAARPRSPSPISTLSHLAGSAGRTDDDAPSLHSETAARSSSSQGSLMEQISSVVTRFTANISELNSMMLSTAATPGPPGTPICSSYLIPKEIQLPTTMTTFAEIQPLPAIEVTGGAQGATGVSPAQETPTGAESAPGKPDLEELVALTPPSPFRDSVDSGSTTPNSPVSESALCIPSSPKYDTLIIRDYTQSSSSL
Method in brief: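 Rat cortical primary astrocytes at 14-15 DIV, loaded with Ca-sensitive dye for 2 h at RT, pH 7.3 buffer; FLIPR fluorescence after L-quisqualate (100 nM), antagonists pre-incubated 10 min. PAMs: quisqualate curves ± 10 µM modulator, or modulator curves at fixed 10-30 nM quisqualate. Max-min responses as % control, logistic fit.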

mGluR5 binding site = target: T3, mGluR5 binding site (Rattus norvegicus, UniProt P31424); experiment: [3H]-M-MPEP displacement studies on rat cortical membranes; conditions: Table A3, [3H]-M-MPEP 2 nM, 4°C for 1 h, median, read-out: Ki (MMPEP)
T3 construct: from tissue; host or cells: cortex of adult male Sprague-Dawley rats, membrane preparation
T3 sequence (P31424 21-1203): as above
Description: Tissue preparation is performed according to Foster & Wong (Br. J. Pharmacol., 1987, 91, 403-409) with some modifications. Anaesthetised male Sprague-Dawley rats (200-250 g, Janvier, Le Genest-Isle, France) are decapitated and their brains are removed rapidly. The cortex is dissected out and processed as described by Parsons, et al. (J. Pharmacol. Exp. Ther., 1997, 283(3): 1264-1275). For isolation of the cell membranes, the cortices are homogenized in 20 volumes of ice-cold 0.32 M sucrose (Sigma-Aldrich, Taufkirchen, Germany) using a glass-Teflon homogenizer. The homogenate is centrifuged at 1000 x g for 10 minutes, the pellet is discarded and the supernatant centrifuged at 20,000 x g for 20 minutes. The resulting pellet is resuspended in 20 volumes of distilled water and centrifuged for 20 minutes at 8000 x g. The supernatant and the buffy coat are then centrifuged six times (48,000 x g for 20 minutes) in the presence of 5 mM Tris-HCl, pH 7.5. All centrifugation steps are carried out at 4°C. After resuspension in 5 volumes of 5 mM Tris-HCl, pH 7.5, the membrane suspension is frozen rapidly at -80°C.
On the day of assay, the membrane suspensions are thawed, centrifuged (48,000 x g for 20 minutes) and then resuspended in 50 mM Tris-HCl, pH 7.5 (assay buffer). The amount of protein in the final membrane preparation is determined according to the method of Lowry, et al. (J. Biol. Chem., 1951, 193, 256-275). The final concentration used for our studies is 400 µg / ml.
The Tecan robotic system designed for binding assays is loaded with the membrane solution, a 96 well stock plate containing the solutions for bound control (buffer/DMSO 10%), unlabeled MPEP (10 µM) for evaluation of non-specific binding, all compounds to be tested (at 20-fold concentrations), various empty 96-well plates for dilutions and the final assay plates, as well as a 96-well plate filled with the radioligand.
Before performing displacement studies, saturation experiments are performed to determine the equilibrium dissociation constant (Kd, Cheng and Prussoff, Biochem. Pharmacol., 1973, 22: 3099-3108) of [^3H]-M-MPEP, which is a parameter for the affinity of the radioligand to the binding site. On the basis of the saturation experiments, a final [^3H]-M-MPEP concentration of 2 nM was selected.
Firstly, the assay plates are loaded with membrane solution and are shaken at 4°C. The mother plates were then prepared by pipetting the compounds (n = 5) into assay buffer/10% DMSO to obtain the desired final concentrations. After transferring radioligand into the assay plates, the compounds are added (including the non-specific binding control containing MPEP). The final DMSO concentration is always 1 %. The assay plates are incubated and shaken at 4°C for 1 h, before the mixture is exhausted as rapidly as possible via a vacuum manifold using the Multiscreen HTS glass fibre (type B) high flow filter plates (Millipore, Schwalbach, Germany) under a constant vacuum of 450 mbar. The membranes are washed four times with cold assay buffer (100 µL). 50 µL of Ultima Gold scintillation cocktail (PerkinElmer) is added to the wet filter plates and incubated at rt overnight before counting the disintegration per minutes using a liquid scintillation counter (MicroBeta, PerkinElmer).
For the evaluation of the test compound binding affinity to the mGluR5 binding site and its potency to displace [^3H]-M-MPEP, the measured radioactivity of the radioligand alone was set as 100% bound control and the non-specific binding of the radioligand represented the 0% control. The residual radioactivity after displacement of the test compound was then corrected with respect to the set controls. Data are given as median IC50 and Ki, respectively.

[2] = Table A1, left shift of agonist EC50, dose response curves in the presence of 10 µM modulator or vehicle, h5CHO cells
[3] = Table A1, left shift of quisqualate EC50 in the presence and absence of 10 µM modulator
[4] = Table A1, positive modulators, fixed concentration of quisqualate (normally 10-30 nM), read-out: rEC50
[5] = Table A3 (SAMs / very weak PAMs), agonist EC50 shift with 10 µM modulator or vehicle, h5CHO cells

| Compound | h left shift [1, 2] | EC50 ([1]; Table A1) [nM] | r left shift (mGluR5 receptors; [3]) | EC50 (mGluR5 receptors; [4]) [nM] | also measured |
| --- | --- | --- | --- | --- | --- |
| O=C(N1CCCCC1)N1CCc2ncc(C#Cc3ccccc3)cc2C1 [Example 50, (3-(Phenylethynyl)-7,8-dihydro-1,6-naphthyridin-6(5H)-yl)(piperidin-1-yl)methanone] | 2.1-fold | 843 | 1.9-fold | – | – |
| N#Cc1cccc(C#Cc2cnc3c(c2)CN(C(=O)N2CCCCC2)CC3)c1 [Example 51, 3-((6-(Piperidine-1-carbonyl)-5,6,7,8-tetrahydro-1,6-naphthyridin-3-yl)ethynyl)benzonitrile] | – | – | – | – | IC50 ([1]; Table A2, negative modulation, compounds added 5 minutes before L-quisqualic acid (~80% of the maximal signal), h5CHO cells, read-out: hIC50): 740 nM; IC50 (mGluR5 receptors; Table A2, pre-incubated 10 minutes before L-quisqualate (100 nM), read-out: rIC50): 2330 nM |
| CN(C)S(=O)(=O)N1CCc2ncc(C#Cc3ccccc3)cc2C1 [Example 52, N,N-Dimethyl-3-(phenylethynyl)-7,8-dihydro-1,6-naphthyridine-6(5H)-sulfonamide] | 2.0-fold | 240 | 1.8-fold | 83.1 | – |
| O=S(=O)(N1CCCC1)N1CCc2ncc(C#Cc3ccccc3)cc2C1 [Example 53, 3-(Phenylethynyl)-6-(pyrrolidin-1-ylsulfonyl)-5,6,7,8-tetrahydro-1,6-naphthyridine] | 1.6-fold | – | 2.8-fold | 152 | – |
| O=S(=O)(N1CCCCC1)N1CCc2ncc(C#Cc3ccccc3)cc2C1 [Example 54, 3-(Phenylethynyl)-6-(piperidin-1-ylsulfonyl)-5,6,7,8-tetrahydro-1,6-naphthyridine] | 2.0-fold | 726 | 2.5-fold | 472 | – |
| O=S(=O)(N1CCOCC1)N1CCc2ncc(C#Cc3ccccc3)cc2C1 [Example 55, 4-((3-(Phenylethynyl)-7,8-dihydro-1,6-naphthyridin-6(5H)-yl)sulfonyl)morpholine] | 2.7-fold | 440 | 3.8-fold | 325 | – |
| O=S(=O)(N1CCCCCC1)N1CCc2ncc(C#Cc3ccccc3)cc2C1 [Example 56, 6-(Azepan-1-ylsulfonyl)-3-(phenylethynyl)-5,6,7,8-tetrahydro-1,6-naphthyridine] | 3.0-fold | 499 | 3.3-fold | 296 | – |
| COC(=O)N1CC[C@H]2c3ncc(C#Cc4ccccc4)cc3CC[C@H]21 [Example 71, (6aR,9aR)-Methyl 3-(phenylethynyl)-6,6a,9,9a-tetrahydro-5H-pyrrolo[2,3-h]quinoline-7(8H)-carboxylate] | 2.2-fold | 241 | 1.3-fold | 32.7 | – |
| COC(=O)N1CC[C@H]2c3ncc(C#Cc4cccc(F)c4)cc3CC[C@H]21 [Example 72, (6aR,9aR)-Methyl 3-((3-fluorophenyl)ethynyl)-6,6a,9,9a-tetrahydro-5H-pyrrolo[2,3-h]quinoline-7(8H)-carboxylate] | 1.7-fold | – | 1.3-fold | 27.3 | – |
| CCOC(=O)C(=O)N1CCc2ncc(C#Cc3ccccc3)cc2C1 [Example 77, Ethyl 2-oxo-2-(3-(phenylethynyl)-7,8-dihydro-1,6-naphthyridin-6(5H)-yl)acetate] | 2.8-fold | 25.4 | 2.8-fold | 22.1 | – |
| CN1CCN(S(=O)(=O)N2CCc3ncc(C#Cc4ccccc4)cc3C2)CC1 [Example 78, 6-((4-Methylpiperazin-1-yl)sulfonyl)-3-(phenylethynyl)-5,6,7,8-tetrahydro-1,6-naphthyridine] | 1.7-fold | 2020 | – | 2050 | – |
| CC(C)S(=O)(=O)N1CCc2ncc(C#Cc3ccccc3)cc2C1 [Example 81, 6-(Isopropylsulfonyl)-3-(phenylethynyl)-5,6,7,8-tetrahydro-1,6-naphthyridine] | – | – | – | – | h left shift [1, 5]: 1.5-fold; r left shift (mGluR5 receptors; Table A3 (SAMs / very weak PAMs), quisqualate EC50 shift with 10 µM modulator): 1.5-fold; EC50 (mGluR5 receptors; Table A3, given in brackets where Ki is n.d., read-out: r EC50): 51.1 nM |
| (rac)-cis-Methyl 3-((3-fluorophenyl)ethynyl)-6a,7,9,9a-tetrahydro-5H-pyrrolo[3,4-h]quinoline-8(6H)-carboxylate [Example 32] | – | – | – | – | h left shift [1, 5]: 0.9-fold; Ki (mGluR5 binding site): 49.3 nM |
